What is called EC50 is the concentration at which the effect is half-maximal. What is called AC50 is the concentration giving half of the maximal activity seen.

Drawing on ChEMBL document CHEMBL1201862, “PubChem BioAssay data set” (2004), this text covers IC50, EC50 and AC50 for eleven molecules.

The structures appear in SMILES notation. The source made the active and inactive calls. Some results are limits rather than exact numbers.

Experiment [1] addresses Heat shock protein HSP 90-alpha (Homo sapiens, UniProt P07900). As to the kind of experiment: Luminescence-based dose response biochemical high throughput screening assay for inhibitors of the Heat Shock Protein 90 (HSP90). [Related pubchem assays: 1831 (Summary AID.), 1846 (Confirmation screen.), 1789 (Primary screen.)].
For another experiment, the target named is T1, Estrogen receptor (Homo sapiens, UniProt P03372).
T1 sequence (P03372 whole entry): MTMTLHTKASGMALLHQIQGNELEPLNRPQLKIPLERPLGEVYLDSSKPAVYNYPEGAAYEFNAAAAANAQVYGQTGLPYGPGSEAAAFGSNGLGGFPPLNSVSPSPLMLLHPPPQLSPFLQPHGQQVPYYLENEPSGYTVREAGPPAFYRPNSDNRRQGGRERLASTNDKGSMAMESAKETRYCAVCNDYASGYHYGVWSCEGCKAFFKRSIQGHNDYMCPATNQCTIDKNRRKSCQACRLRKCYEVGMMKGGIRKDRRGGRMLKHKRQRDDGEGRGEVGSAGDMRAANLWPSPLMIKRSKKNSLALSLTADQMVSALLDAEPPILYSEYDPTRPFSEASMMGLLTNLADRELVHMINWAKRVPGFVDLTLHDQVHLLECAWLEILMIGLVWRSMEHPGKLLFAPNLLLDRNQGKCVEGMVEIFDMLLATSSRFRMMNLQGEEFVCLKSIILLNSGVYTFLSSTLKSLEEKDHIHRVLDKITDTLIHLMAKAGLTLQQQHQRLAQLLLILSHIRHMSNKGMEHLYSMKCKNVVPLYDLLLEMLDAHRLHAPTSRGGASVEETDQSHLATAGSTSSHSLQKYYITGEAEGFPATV
As to the kind of experiment: potentiators of ERα–SRC-1 coactivator binding, dose response, biochemical, TR-FRET, ERα LBD (AID 737). A general note: TR-FRET usually uses a lanthanide donor and a delayed reading to cut background.

The target of the next experiment is Transthyretin (Homo sapiens, UniProt P02766). As to the kind of experiment: Luminescence-based cell-based high throughput dose response assay to identify activators of Transthyretin (TTR) transcription. The experiment is classed as functional.
The next experiment has as its target T2, Protein skinhead-1 (Caenorhabditis elegans, UniProt P34707).
T2 sequence (P34707 whole entry): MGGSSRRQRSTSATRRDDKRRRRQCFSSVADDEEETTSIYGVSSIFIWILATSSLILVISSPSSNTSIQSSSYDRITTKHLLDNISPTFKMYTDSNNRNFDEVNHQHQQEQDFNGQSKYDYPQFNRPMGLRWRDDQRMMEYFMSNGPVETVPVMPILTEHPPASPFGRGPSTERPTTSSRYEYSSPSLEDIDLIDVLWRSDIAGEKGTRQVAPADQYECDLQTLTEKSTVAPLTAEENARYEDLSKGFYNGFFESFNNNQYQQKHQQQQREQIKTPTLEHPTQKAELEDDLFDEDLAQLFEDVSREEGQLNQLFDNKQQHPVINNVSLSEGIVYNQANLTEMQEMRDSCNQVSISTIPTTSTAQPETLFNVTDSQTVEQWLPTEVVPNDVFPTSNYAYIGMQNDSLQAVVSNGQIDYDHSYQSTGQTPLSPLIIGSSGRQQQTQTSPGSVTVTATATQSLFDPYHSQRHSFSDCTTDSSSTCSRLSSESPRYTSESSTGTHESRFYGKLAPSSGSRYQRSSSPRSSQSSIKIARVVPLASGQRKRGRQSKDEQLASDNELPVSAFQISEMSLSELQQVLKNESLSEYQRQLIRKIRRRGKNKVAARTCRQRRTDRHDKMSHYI
The format is functional.

Experiment [2] can be described thus: Luminescence Cell-Based Dose Retest to Confirm Inhibitors of Cancer Stem Cells. [Related pubchem assays (depositor defined):AID2717, AID2721]. The experiment is classed as functional. The following applies: Homo sapiens.
A short description of experiment [3]: P. falciparum late gametocyte killing, dose response, luminescence (AID 1117278).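 Note: gametocytes exposed to compound for 24 hours.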 The format is functional, cell-based.
The nature of experiment [4]: Jurkat T cell cytotoxicity, dose response, cytotoxicity control for P. falciparum gametocyte viability project, luminescence (AID 1117277).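 Note: potency reflects loss of cellular ATP meaning fewer viable cells.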 The format is functional, cell-based.
Experiment [5] is described as follows: cytotoxicity toward Colo320 cells – cell-based, CellTiter-Glo luminescence, IC50, dose response (AID 1117334). As to conditions: COLO 320. The experiment is classed as functional. (In general: In ATP-based viability assays light output follows the ATP content of the culture.)
Experiment [6] is described as follows: cytotoxicity toward HT-29 cells – cell-based, CellTiter-Glo luminescence, IC50, dose response (AID 1117330). The experiment is classed as functional.
Experiment [7] is described as follows: cytotoxicity toward HCT116 cells – cell-based, CellTiter-Glo luminescence, IC50, dose response (AID 1117332). The format is functional. The following applies: HCT-116.
The target of experiment [8] is T3, Polyadenylate-binding protein 1 (Homo sapiens, UniProt P11940). As to the kind of experiment: PABP1 MLLE–PAM2 interaction inhibitors, dose response, miRNA deadenylation inhibitor project, biochemical, fluorescence polarization, Cy5-PAM2 peptide, secondary (AID 602260). The format is functional. The following applies: read-out: IC50_Mean. (In general: In fluorescence polarisation assays a small probe gives low polarisation when free and higher when bound to something large.)

The nature of experiment [9]: CellTiter-Glo luminescent dose response of DLD-1 viability loss (AID 1117352). The format is functional.
Experiment [10] is described as follows: Concentration-dependent survival of SW480 colon cancer line, luminescence detection with CellTiter-Glo, half-maximal inhibitory concentration (AID 1117338). The experiment is classed as functional.
The target in experiment [11] is T3, Polyadenylate-binding protein 1. Description: PABP1 MLLE–PAM2 binding inhibitor potency, dose response, biochemical, fluorescence polarization, FITC-PAM2 peptide (AID 602259). The following applies: read-out: IC50_Mean. The experiment is classed as functional.
Experiment [12] in a line: HCT116 cell viability decrease, GSK3B pretreatment – CellTiter-Glo, IC50, dose response (AID 1117339). The format is functional. The following applies: HCT-116.
A short description of experiment [13]: SNU-C1 cell viability reduction, dose response, CellTiter-Glo luminescence (AID 1117323). The experiment is classed as functional, cell-based.
Experiment [14] deals with ADP-ribosylation factor GTPase-activating protein 1 (Rattus norvegicus, UniProt Q62848). As to the kind of experiment: Fluorescence polarization-based biochemical high throughput dose response screening assay to identify inhibitors of ADP-ribosylation factor GTPase activating protein 1 (ARFGAP1). The experiment is classed as functional.
Experiment [15] deals with Arf-GAP with SH3 domain, ANK repeat and PH domain-containing protein 1 (Homo sapiens, UniProt Q9ULH1). The experiment is classed as functional.
In another experiment the test system is HT-1080. Description: cytotoxicity in HT1080 fibrosarcoma cells, cell-based, fluorescence readout (AID 620). As to conditions: Homo sapiens. The experiment is classed as functional.
Experiment [16] is described as follows: Luminescence Cell-Based Dose Response to Identify Activators of Luciferase Translation or Activity in H4-C Neuroglioblastoma Cells. [Related pubchem assays: 1829 (Project Summary), 1814 (Primary HTS)]. The format is functional.
A short description of experiment [17]: Luminescence Cell-Based Dose Response HTS to Identify Activators of Luciferase Translation or Activity in H4 […] Cells. [Related pubchem assays: 1829 (Project Summary), 1814 (Primary HTS)]. The experiment is classed as functional.
The nature of experiment [18]: Luminescence Cell-Based Dose Response to Identify Activators of 5'UTR Stem-Loop Driven Prion Protein mRNA Translation in H4-C Neuroglioblastoma Cells. [Related pubchem assays: 1829 (Project Summary), 1814 (Primary HTS)]. The format is functional.
Experiment [19] is described as follows: Luminescence Cell-Based Dose Confirmation to Identify Activators of 5'UTR Stem-Loop Driven Alpha-Synuclein mRNA Translation in H4 Neuroglioblastoma Cells. [Related pubchem assays: 1829 (Project Summary), 1814 (Primary HTS)]. The experiment is classed as functional.
The target in the next experiment is Cytochrome P450 2C19 (Homo sapiens, UniProt P33261). Description: Cytochrome panel assay with activity outcomes. Panel member name: p450-cyp2c19 Compounds with AC50 equal or less than 10 uM are considered active. The format is functional. The following applies: read-out: AC50.
For experiment [20], the target named is T4, Estrogen receptor beta (Homo sapiens, UniProt Q92731). Description: ERβ–SRC-3 coactivator interaction inhibitors, confirmation, orthogonal assay, biochemical, ELISA, streptavidin-HRP readout (AID 1060).
Experiment [21] addresses T4, Estrogen receptor beta.
A short description of experiment [22]: A375 melanoma cell cytotoxicity, dose response, counter-screen for MITF inhibitor project, CellTiter-Glo luminescence, dry powder, set 2 (AID 624489).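 Note: actives are compounds lowering A375 viability meaning general cytotoxicity.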 The format is functional, cell-based. As to conditions: A-375.
Experiment [23] in a line: A375 melanoma cell viability loss, dose response, counter-screen for MITF inhibitor project, CellTiter-Glo luminescence, dry powder, set 4 (AID 624364).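 Note: A375 melanoma cells are MITF independent so this is a counter screen.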 As to conditions: A-375. The format is functional, cell-based.

T4 sequence (Q92731 whole entry): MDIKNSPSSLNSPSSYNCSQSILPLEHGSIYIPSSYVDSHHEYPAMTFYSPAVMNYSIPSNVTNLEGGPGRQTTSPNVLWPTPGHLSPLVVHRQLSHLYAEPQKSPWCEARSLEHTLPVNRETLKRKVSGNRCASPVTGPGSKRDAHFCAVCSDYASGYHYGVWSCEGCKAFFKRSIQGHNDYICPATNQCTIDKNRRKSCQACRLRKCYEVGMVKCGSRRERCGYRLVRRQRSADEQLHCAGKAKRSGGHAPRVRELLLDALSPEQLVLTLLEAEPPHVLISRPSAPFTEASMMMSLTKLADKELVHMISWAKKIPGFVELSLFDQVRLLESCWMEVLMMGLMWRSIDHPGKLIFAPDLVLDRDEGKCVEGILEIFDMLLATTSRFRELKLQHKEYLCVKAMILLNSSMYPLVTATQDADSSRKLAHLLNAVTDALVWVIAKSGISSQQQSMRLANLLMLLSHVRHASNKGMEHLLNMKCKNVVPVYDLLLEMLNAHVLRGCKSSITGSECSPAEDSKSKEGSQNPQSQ
T3 sequence (P11940 whole entry): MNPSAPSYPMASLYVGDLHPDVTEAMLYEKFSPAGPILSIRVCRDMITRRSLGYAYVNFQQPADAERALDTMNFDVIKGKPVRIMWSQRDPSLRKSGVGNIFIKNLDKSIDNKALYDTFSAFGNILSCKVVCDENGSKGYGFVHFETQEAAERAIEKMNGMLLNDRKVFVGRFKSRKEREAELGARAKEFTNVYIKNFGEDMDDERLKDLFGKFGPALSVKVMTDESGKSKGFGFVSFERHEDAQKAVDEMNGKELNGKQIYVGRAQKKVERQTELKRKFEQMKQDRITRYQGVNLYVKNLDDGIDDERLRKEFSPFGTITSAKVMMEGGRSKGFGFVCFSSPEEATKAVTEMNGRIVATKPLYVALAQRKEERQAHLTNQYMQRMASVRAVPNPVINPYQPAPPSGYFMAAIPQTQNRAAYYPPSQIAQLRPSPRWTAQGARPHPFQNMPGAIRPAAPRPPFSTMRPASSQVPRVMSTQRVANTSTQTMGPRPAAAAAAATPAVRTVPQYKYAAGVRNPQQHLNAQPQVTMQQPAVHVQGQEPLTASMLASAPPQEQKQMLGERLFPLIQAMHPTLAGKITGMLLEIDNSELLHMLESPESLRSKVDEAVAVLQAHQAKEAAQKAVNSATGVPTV
Sequence of ADP-ribosylation factor GTPase-activating protein 1 (Q62848 whole entry, the tested form may be a part): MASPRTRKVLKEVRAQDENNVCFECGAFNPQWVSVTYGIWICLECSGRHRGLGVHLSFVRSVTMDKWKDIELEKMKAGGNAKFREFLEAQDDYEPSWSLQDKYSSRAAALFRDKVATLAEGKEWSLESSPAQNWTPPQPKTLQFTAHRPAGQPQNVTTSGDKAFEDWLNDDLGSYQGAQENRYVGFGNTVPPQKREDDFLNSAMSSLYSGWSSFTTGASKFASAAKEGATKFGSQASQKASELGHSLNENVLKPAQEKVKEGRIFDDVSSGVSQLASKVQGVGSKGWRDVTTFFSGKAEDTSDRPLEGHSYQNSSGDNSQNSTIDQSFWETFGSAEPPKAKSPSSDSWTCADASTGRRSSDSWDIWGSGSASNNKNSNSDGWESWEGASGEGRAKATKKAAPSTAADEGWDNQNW
Sequence of Cytochrome P450 2C19 (P33261 whole entry): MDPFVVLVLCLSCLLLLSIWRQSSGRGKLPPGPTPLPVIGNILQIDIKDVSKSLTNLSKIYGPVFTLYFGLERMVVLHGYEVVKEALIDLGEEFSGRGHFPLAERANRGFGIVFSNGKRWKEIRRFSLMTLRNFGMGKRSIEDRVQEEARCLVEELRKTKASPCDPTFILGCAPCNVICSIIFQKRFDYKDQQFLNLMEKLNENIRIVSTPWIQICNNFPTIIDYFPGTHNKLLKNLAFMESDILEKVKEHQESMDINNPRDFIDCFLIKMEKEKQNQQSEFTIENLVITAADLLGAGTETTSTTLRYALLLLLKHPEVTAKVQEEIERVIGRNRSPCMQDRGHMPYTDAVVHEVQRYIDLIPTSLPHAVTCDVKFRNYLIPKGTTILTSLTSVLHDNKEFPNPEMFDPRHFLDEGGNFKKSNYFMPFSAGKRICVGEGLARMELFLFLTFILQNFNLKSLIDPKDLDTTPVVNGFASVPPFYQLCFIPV
Sequence of Arf-GAP with SH3 domain, ANK repeat and PH domain-containing protein 1 (Q9ULH1 whole entry, the tested form may be a part): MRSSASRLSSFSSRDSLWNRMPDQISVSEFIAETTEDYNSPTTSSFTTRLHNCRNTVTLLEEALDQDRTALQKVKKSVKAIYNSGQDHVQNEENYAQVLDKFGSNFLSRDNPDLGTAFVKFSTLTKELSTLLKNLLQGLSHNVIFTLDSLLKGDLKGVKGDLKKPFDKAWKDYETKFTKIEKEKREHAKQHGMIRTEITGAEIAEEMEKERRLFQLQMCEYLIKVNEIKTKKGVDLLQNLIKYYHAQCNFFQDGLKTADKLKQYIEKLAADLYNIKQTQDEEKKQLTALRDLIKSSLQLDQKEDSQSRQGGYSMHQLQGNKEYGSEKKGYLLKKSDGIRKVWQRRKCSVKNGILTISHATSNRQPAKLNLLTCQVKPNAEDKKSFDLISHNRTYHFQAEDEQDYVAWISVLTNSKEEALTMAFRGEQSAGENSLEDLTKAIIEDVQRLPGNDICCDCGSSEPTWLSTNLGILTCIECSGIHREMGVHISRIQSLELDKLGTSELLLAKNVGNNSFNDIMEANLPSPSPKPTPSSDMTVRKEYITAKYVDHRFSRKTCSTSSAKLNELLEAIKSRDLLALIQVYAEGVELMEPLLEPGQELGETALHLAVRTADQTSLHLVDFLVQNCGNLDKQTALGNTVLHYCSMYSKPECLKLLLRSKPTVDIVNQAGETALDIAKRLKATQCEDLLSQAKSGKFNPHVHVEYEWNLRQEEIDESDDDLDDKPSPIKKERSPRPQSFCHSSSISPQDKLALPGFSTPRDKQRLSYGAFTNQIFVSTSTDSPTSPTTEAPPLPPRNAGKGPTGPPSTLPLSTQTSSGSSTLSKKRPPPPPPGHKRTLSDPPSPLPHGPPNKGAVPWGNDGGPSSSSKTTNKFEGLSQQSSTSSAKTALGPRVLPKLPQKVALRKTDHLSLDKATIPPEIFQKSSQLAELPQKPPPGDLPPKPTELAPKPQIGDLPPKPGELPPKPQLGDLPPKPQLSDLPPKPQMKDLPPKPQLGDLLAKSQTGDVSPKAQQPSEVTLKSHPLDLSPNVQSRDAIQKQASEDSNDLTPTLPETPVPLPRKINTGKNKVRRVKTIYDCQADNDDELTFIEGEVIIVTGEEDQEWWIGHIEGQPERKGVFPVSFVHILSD

As to `O=C(O)c1cc(N/N=C/c2c[nH]c3ccccc23)ccc1Cl`, in experiment [1], the IC50 is > 2 µM (active).
For `CCOc1ccc(CC2SC(Nc3ccccn3)=NC2=O)cc1` (stereo not given), the EC50 on Estrogen receptor is 25.1 µM (active).
`O=[N+]([O-])c1cccc(-c2noc(-c3ccco3)n2)c1`: the EC50 on Transthyretin is > 167 µM (inactive). The IC50 on Protein skinhead-1 is > 100 µM (inactive).
In the case of `Cc1ccc(C(=O)NC2c3ccccc3-c3ccccc32)cc1`, in experiment [2], the AC50 is 448 nM (active). The IC50 in [3] was > 109 µM (inactive); in experiment [4] it was > 1.03 µM (active).
In the case of `COP(=S)(OC)Oc1ccc(Sc2ccc(OP(=S)(OC)OC)cc2)cc1` [TEMEFOS], the IC50 in [5] is > 20 µM (inactive); in experiment [6], > 20 µM (inactive); in [7], > 20 µM (inactive); in experiment [8] it was > 66 µM (inactive); in experiment [9], > 20 µM (inactive); in experiment [10], 11.8 nM (active). For the same molecule, the IC50 is > 66 µM (inactive) in experiment [11], > 20 µM (inactive) in experiment [12] and 3.03 µM (active) in [13].
For the molecule `Cc1ccc(Nc2c3c(nc4ncnn24)CCC3)cc1`, the EC50 on Transthyretin is > 167 µM (inactive).
As to `Cc1cc(C(=O)COC(=O)c2[nH]nc3ccccc23)c(C)n1C`, the IC50 in experiment [14] is 32.4 µM (inactive); in [15], 37.6 µM (inactive). The half-maximal effective concentration (EC50) in the experiment on HT-1080 is > 50 µM (not active).
For the molecule `CC(C)c1ccc(C(=O)NNC(=O)C2C3CCC(C3)C2C(=O)O)cc1` (stereo not given), the EC50 in experiment [16] is 301 nM (active); in [17], < 100 nM (inconclusive); in experiment [18], 281 nM (active); in experiment [19] it was 232 nM (active).
For the molecule `Nc1cc(-c2nnn[nH]2)ccc1F`, the AC50 at Cytochrome P450 2C19 is 28.2 µM (inconclusive). Besides, the IC50 against Estrogen receptor beta [20] is 0.859 µM (not active).
Consider `CCOC(=O)c1c(C)[nH]c(C)c1C(=O)COC(=O)CCOc1ccccc1OC`, for which the IC50 on Estrogen receptor beta [20] is > 109 µM (not active); on Estrogen receptor beta [21] it was 35.3 µM (not active).
In the case of `COc1ccc(C(=O)NC2=C(c3ccc(OC(F)(F)F)cc3)C(=O)c3ccccc3C2=O)cc1`, the figures for the AC50 in experiment [22] and in experiment [23] were 23.4 µM (active) and 41 µM (active), respectively.
